“Also recorded” adds a separate entry of the source.
Legend:
malignant melanoma = conditions: liver and lung; cited from earlier work
sentinel lymph node = test: Intraoperative lymphatic mapping / sentinel lymph node dissection with histologic evaluation for carbon particles; format: in vivo, Sprague-Dawley rats; conditions: for basins in which afferent lymphatic channel and stained (sentinel) node were identified: 0.04 cc intradermal, lower extremity, incision 5 min after injection
From the text: Twenty-two adult Sprague-Dawley rats weighing 300-500 g were obtained after receiving approval from the Animal Care and Use Committee at the Harbor-UCLA Research and Education Institute. All animals were obtained at least one day prior to planned procedures.
Isosulfan blue dye (Lymphazurin 1%) was obtained from Hirsch Industries, Inc. (Richmond, Va.). Carbon dye containing 6% carbon black (# 4415) was obtained from Sanford Corporation (Bellwood, Ill.) and either used alone at full strength or mixed with isosulfan blue and/or sterile normal saline in the concentrations shown in Table 1.
All mapping solutions containing ink were sterilized in an autoclave at 121° C. for 25 m, prior to injection.
All procedures were performed under general anesthesia. Rats were anesthetized with a mixture of ketamine (42.9 mg/kg), xylazine (8.6 mg/kg), and acepromazine (1.4 mg/kg). A half-dose of this mixture was readministered at 60 minutes and then every 30 minutes. Buprenorphine (0.01-0.05 mg/kg) was administered subcutaneously for postoperative analgesia.
The inguinal regions of the animals were shaved. A 29-gauge needle with a 1-cc tuberculin syringe was used to inject 0.04 cc of the mapping solution intradermally just below the medial aspect of the knee on the lower extremity. Five minutes later, and under sterile conditions, an incision was made over the region of the inguinal lymph nodes. […] The lymphatic was followed to the first stained lymph node. Further dissection was carried out to identify additional stained nodes. All stained nodes were removed and placed in formalin. Nonstained nodes in the same drainage basin were removed and fixed in a similar fashion, and analyzed for carbon particles. The identical procedure was performed on the contralateral extremity of each animal using an alternative mapping mixture.
Lymph nodes were placed in paraffin blocks, serially sectioned, and stained with hematoxylin and eosin (H and E). Each lymph node was evaluated by light microscopy for the presence of carbon particles.

| SMILES | uptake by non-tumor tissue (malignant melanoma) | basins in which afferent lymphatic channel and stained (sentinel) node were identified (sentinel lymph node; listed as Isosulfan blue) | basins in which afferent lymphatic channel and stained (sentinel) node were identified (sentinel lymph node; listed as Isosulfan blue dye) | total number of sentinel nodes (sentinel lymph node; 6 basins) |
| --- | --- | --- | --- | --- |
| CCN(CC)CCNC(=O)c1ccc(I)cc1 [IDAB, N-(diethylaminoethyl)4-iodobenzamide] | taken up in high concentrations by non-melanoma cells in the liver and lung | – | – | – |
| CCN(CC)c1ccc(C(=C2C=CC(=[N+](CC)CC)C=C2)c2cc(S(=O)(=O)[O-])ccc2S(=O)(=O)[O-])cc1.[Na+] [isosulfan blue dye, isosulfan blue] | – | effectively identified the lymphatic channel and sentinel node(s); also recorded: clearly identified one sentinel node in each paired basin | all 6 | 8 |

— patent US6815170B1, “Methods for lymph node identification” (John Wayne Cancer Institute, priority 1999, dated 2004)
